Laboratory results: EP4725956A1, “MODIFIED POLYPEPTIDE AND USE THEREOF IN FIELD OF ANALGESIA” (Nanjing Anji Biotechnology Co., Ltd., priority 2023, dated 2024)
Positions of bridges follow the written chain, without caps; N, C: chain ends. Non-standard residues stand in square brackets, D forms with d. Residues, ends and D or L forms follow the SMILES beside them. Bip = N[C@@H](Cc1ccc(-c2ccccc2)cc1)C(=O)O; Hyp = O=C(O)[C@@H]1C[C@@H](O)CN1; Nle = CCCC[C@H](N)C(=O)O; Orn = NCCC[C@H](N)C(=O)O; Aib = CC(C)(N)C(=O)O

What was measured:
Type in all cases: in vivo
[1] = tested on: mouse diabetic neuropathic pain model; test: Mouse diabetic neuropathic pain model (Example 10)
Procedure: Except for the control group, the remaining male C57 mice (Hangzhou Ziyuan Experimental Animal Technology Co., Ltd.) were continuously fed a high-sugar, high-fat diet for approximately ten weeks. For the model group, mice were fasted overnight, and streptozotocin (STZ) (Sann Chemical Technology (Shanghai) Co., Ltd.) was dissolved in sodium citrate-citric acid buffer solution and intraperitoneally injected at a dose of 70 mg/kg. About two weeks after STZ injection, the mechanical pain threshold of mice was measured. Mice were placed on a perforated wire mesh for adaptation, and the plantar surface of the right hind paw was vertically stimulated with a blunt needle. Pain threshold data were collected using a biosignal acquisition system. Each mouse was measured three times, and the average value was calculated. Mice were then randomly assigned to groups based on their pain thresholds for drug administration.
Day 1 of dosing: Drug administration was performed according to Table 9. Mechanical pain thresholds of the plantar surface were measured at 0 h, 2 h, 4 h, 6 h, and 8 h after administration.

[2] = tested on: mouse oxaliplatin-induced acute chemotherapy pain model; test: Mouse oxaliplatin chemotherapy pain model, different doses (Example 7)
Procedure: Oxaliplatin was dissolved in 5% glucose solution to a concentration of 1 mg/mL. For model induction, each male C57 mouse (Hangzhou Ziyuan Experimental Animal Technology Co., Ltd.) received a single intraperitoneal injection of oxaliplatin at 10 mg/kg. Mice in the negative control or blank control group received 5% glucose solution. Approximately one week after model induction, mechanical pain thresholds of the mice were measured three times per mouse, and the average value was calculated. Mice were then randomly assigned to groups based on their pain thresholds. Drug administration was carried out according to the dosing schedule shown in Table 6, with a single dose per mouse. Mechanical pain thresholds were measured at 0.5, 1, 2, 4, 6, and 8 h post-dose. […] Table 6 Dosing Scheme for Oxaliplatin Chemotherapy Pain Model

rat CCI model = test: Rat CCI (chronic constriction injury) model (Example 9); conditions: Day 1 of dosing
From the text: Neuropathic pain has many types, and animal models can simulate clinical neuropathic pain. Common SD rat sciatic nerve neuropathic pain models include CCI (Chronic Constriction Injury), SNI (Spared Nerve Injury), SNL (Spinal Nerve Ligation), and CCD (using stainless steel wire through the intervertebral foramen to fix and compress the dorsal root ganglion). Among them, the CCI model is widely used to study neuropathic pain, providing a basis for further research on mechanisms and strategies for nerve injury repair (Wen Xiaojun, Medical Information, Jan. 2018, Vol. 31, No.1). In this example, the CCI model was employed.
Except for the control group, the remaining SD rats were anesthetized via intraperitoneal injection of 10% chloral hydrate saline solution at a dose of 0.3 mL per 100 g body weight, and surgical modeling was performed. The right hind limb skin was carefully incised, muscles were separated, and the sciatic nerve was ligated three times using 4-0 surgical silk, spaced 1 mm apart. Muscles and skin were sutured, and antibiotics were applied to the wound to prevent infection. […] Approximately 10 days post-surgery, plantar pain thresholds were measured three times for each rat, and the average value was calculated. Rats were randomly assigned to groups based on pain thresholds. Drug administration was performed according to Table 8, and plantar pain thresholds were measured at 2 h, 4 h, 6 h, and 8 h after administration.

CCCC[C@H](NC(=O)[C@@H](NC(=O)[C@H]1CSSC[C@H](NC(=O)[C@H](CO)NC(=O)CN)C(=O)N[C@@H](CO)C(=O)N[C@H]([C@H](C)O)C(=O)N2C[C@H](O)C[C@H]2C(=O)N2C[C@H](O)C[C@H]2C(=O)NC(C)(C)C(=O)N1)C(C)C)C(=O)N[C@@H](Cc1ccc(-c2ccccc2)cc1)C(=O)N[C@@H](CCCN)C(N)=O [AJ003-36, GSCS-(D-Thr)-Hyp-Hyp-Aib-(D-Cys)-V-Nle-Bip-Orn-NH2 (3,9 disulfide bond)] (H-GSCS[dT][Hyp][Hyp][Aib][dC]V[Nle][Bip][Orn]-NH2; disulfide 3-9)
analgesic activity compared with the model group (mechanical pain threshold) ([1]; Day 1 of dosing, 2 h and 4 h, 1 mg/kg s.c. (low dose)): significant analgesic activity
analgesic activity compared with the model group (mechanical pain threshold) ([1]; Day 1 of dosing, 2 h and 4 h, 2 mg/kg s.c. (AJ003; AJ003-36 medium dose)): significant analgesic activity
analgesic activity compared with the model group (mechanical pain threshold) ([1]; Day 1 of dosing, 2 h and 4 h, 3 mg/kg s.c. (high dose)): significant analgesic activity
analgesic activity compared with the model group (mechanical pain threshold) ([1]; Day 1 of dosing, 6 h and 8 h, 1 mg/kg s.c. (low dose)): significant analgesic activity
analgesic activity compared with the model group (mechanical pain threshold) ([1]; Day 1 of dosing, 6 h and 8 h, 2 mg/kg s.c. (AJ003; AJ003-36 medium dose)): significant analgesic activity
analgesic activity compared with the model group (mechanical pain threshold) ([1]; Day 1 of dosing, 6 h and 8 h, 3 mg/kg s.c. (high dose)): significant analgesic activity
analgesic activity compared with the model group (mechanical pain threshold) ([1]; Day 4 of dosing, 2 h and 4 h, 1 mg/kg s.c. (low dose)): significant analgesic activity
analgesic activity compared with the model group (mechanical pain threshold) ([1]; Day 4 of dosing, 2 h and 4 h, 2 mg/kg s.c. (AJ003; AJ003-36 medium dose)): significant analgesic activity
analgesic activity compared with the model group (mechanical pain threshold) ([1]; Day 4 of dosing, 2 h and 4 h, 3 mg/kg s.c. (high dose)): significant analgesic activity
analgesic activity compared with the model group (mechanical pain threshold) ([1]; Day 4 of dosing, 6 h and 8 h, 1 mg/kg s.c. (low dose)): significant analgesic activity
analgesic activity compared with the model group (mechanical pain threshold) ([1]; Day 4 of dosing, 6 h and 8 h, 2 mg/kg s.c. (AJ003; AJ003-36 medium dose)): significant analgesic activity
analgesic activity compared with the model group (mechanical pain threshold) ([1]; Day 4 of dosing, 6 h and 8 h, 3 mg/kg s.c. (high dose)): significant analgesic activity
analgesic activity compared with the model group (mechanical pain threshold) ([1]; Day 8 of dosing, 2 h and 4 h, 1 mg/kg s.c. (low dose)): significant analgesic activity
analgesic activity compared with the model group (mechanical pain threshold) ([1]; Day 8 of dosing, 2 h and 4 h, 2 mg/kg s.c. (AJ003; AJ003-36 medium dose)): significant analgesic activity
analgesic activity compared with the model group (mechanical pain threshold) ([1]; Day 8 of dosing, 2 h and 4 h, 3 mg/kg s.c. (high dose)): significant analgesic activity
analgesic activity compared with the model group (mechanical pain threshold) ([1]; Day 8 of dosing, 6 h and 8 h, 1 mg/kg s.c. (low dose)): no significant difference
analgesic activity compared with the model group (mechanical pain threshold) ([1]; Day 8 of dosing, 6 h and 8 h, 2 mg/kg s.c. (AJ003; AJ003-36 medium dose)): significant analgesic activity
analgesic activity compared with the model group (mechanical pain threshold) ([1]; Day 8 of dosing, 6 h and 8 h, 3 mg/kg s.c. (high dose)): significant analgesic activity
analgesic activity compared with the model group (mechanical pain threshold) ([1]; Day 14 of dosing, 2 h and 4 h, 1 mg/kg s.c. (low dose)): significant analgesic activity
analgesic activity compared with the model group (mechanical pain threshold) ([1]; Day 14 of dosing, 2 h and 4 h, 2 mg/kg s.c. (AJ003; AJ003-36 medium dose)): significant analgesic activity
analgesic activity compared with the model group (mechanical pain threshold) ([1]; Day 14 of dosing, 2 h and 4 h, 3 mg/kg s.c. (high dose)): significant analgesic activity
analgesic activity compared with the model group (mechanical pain threshold) ([1]; Day 14 of dosing, 6 h and 8 h, 1 mg/kg s.c. (low dose)): significant analgesic activity
analgesic activity compared with the model group (mechanical pain threshold) ([1]; Day 14 of dosing, 6 h and 8 h, 2 mg/kg s.c. (AJ003; AJ003-36 medium dose)): significant analgesic activity
analgesic activity compared with the model group (mechanical pain threshold) ([1]; Day 14 of dosing, 6 h and 8 h, 3 mg/kg s.c. (high dose)): significant analgesic activity
analgesic activity compared with pregabalin ([1]; high dose 3 mg/kg s.c. vs pregabalin 60 mg/kg oral, over four administrations): slightly superior analgesic activity
analgesic activity compared with the model group (mechanical pain threshold) ([2]; single dose, 0.5, 1, 2 and 4 h post-dose, 1 mg/kg s.c. (low dose)): significant analgesic activity
analgesic activity compared with the model group (mechanical pain threshold) ([2]; single dose, 0.5, 1, 2 and 4 h post-dose, 2 mg/kg s.c. (AJ003; AJ003-36 medium dose)): significant analgesic activity
analgesic activity compared with the model group (mechanical pain threshold) ([2]; single dose, 0.5, 1, 2 and 4 h post-dose, 3 mg/kg s.c. (high dose)): significant analgesic activity
analgesic activity compared with the model group (mechanical pain threshold) ([2]; single dose, 6 h post-dose, 1 mg/kg s.c. (low dose)): significant analgesic activity
analgesic activity compared with the model group (mechanical pain threshold) ([2]; single dose, 6 h post-dose, 2 mg/kg s.c. (AJ003; AJ003-36 medium dose)): significant analgesic activity
analgesic activity compared with the model group (mechanical pain threshold) ([2]; single dose, 6 h post-dose, 3 mg/kg s.c. (high dose)): significant analgesic activity
analgesic activity compared with the model group (mechanical pain threshold) ([2]; single dose, 8 h post-dose, 1 mg/kg s.c. (low dose)): no significant effect
analgesic activity compared with the model group (mechanical pain threshold) ([2]; single dose, 8 h post-dose, 2 mg/kg s.c. (AJ003; AJ003-36 medium dose)): significant analgesic activity
analgesic activity compared with the model group (mechanical pain threshold) ([2]; single dose, 8 h post-dose, 3 mg/kg s.c. (high dose)): significant analgesic activity
analgesic activity compared with the model group (mechanical pain threshold) (rat CCI model; 2 h and 4 h, 0.5 mg/kg s.c. (low dose)): significant analgesic activity
analgesic activity compared with the model group (mechanical pain threshold) (rat CCI model; 2 h and 4 h, 1 mg/kg s.c. (AJ003; AJ003-36 medium dose)): significant analgesic activity
analgesic activity compared with the model group (mechanical pain threshold) (rat CCI model; 2 h and 4 h, 2 mg/kg s.c. (high dose)): significant analgesic activity
analgesic activity compared with the model group (mechanical pain threshold) (rat CCI model; 6 h, 0.5 mg/kg s.c. (low dose)): significant analgesic activity
